Measurements taken from ChEMBL document CHEMBL3046208, “Natural and synthetic podolactones with potential use as natural herbicide models” (2000).
Calls of active or inactive are those of the source. The calls are words filed in the database; no cut-off is given here.

Tests used:
Assay type in all cases: functional
[1] = test system: Lepidium sativum; experiment: Inhibition of shoot length of Lepidium sativum at 0.1 mM after 5 days relative to untreated control; conditions: 120 h
[2] = test system: Lactuca sativa; experiment: Inhibition of shoot length of Lactuca sativa cv. Roman (lettuce) at 0.1 mM after 5 days relative to untreated control; conditions: 120 h
[3] = test system: Triticum aestivum; experiment: Inhibition of shoot length of Triticum aestivum (wheat) at 0.1 mM after 5 days relative to untreated control
[4] = test system: Lactuca sativa; experiment: Stimulation of root length of Lactuca sativa cv. Roman (lettuce) at 0.1 mM after 5 days relative to untreated control
[5] = test system: Allium cepa; experiment: Stimulation of root length of Allium cepa (onion) at 0.1 mM after 5 days relative to untreated control
[6] = test system: Triticum aestivum; experiment: Stimulation of germination of Triticum aestivum (wheat) at 0.1 mM after 5 days relative to untreated control
[7] = test system: Lactuca sativa; experiment: Inhibition of germination of Lactuca sativa cv. Roman (lettuce) at 0.1 mM after 5 days relative to untreated control
[8] = test system: Lactuca sativa; experiment: Inhibition of germination of Lactuca sativa cv. Nigra (lettuce) at 0.1 mM after 5 days relative to untreated control; conditions: 120 h
[9] = test system: Triticum aestivum; experiment: Inhibition of germination of Triticum aestivum (wheat) at 0.1 mM after 5 days relative to untreated control
[10] = test system: Hordeum vulgare; experiment: Inhibition of germination of Hordeum vulgare (barley) at 0.1 mM after 5 days relative to untreated control; conditions: 120 h
[11] = test system: Lepidium sativum; experiment: Inhibition of germination of Lepidium sativum at 0.1 mM after 5 days relative to untreated control
[12] = test system: Solanum lycopersicum; experiment: Stimulation of root length of Solanum lycopersicum (tomato) at 0.1 mM after 5 days relative to untreated control
[13] = test system: Hordeum vulgare; experiment: Inhibition of shoot length of Hordeum vulgare (barley) at 0.1 mM after 5 days relative to untreated control
[14] = test system: Solanum lycopersicum; experiment: Stimulation of root length of Solanum lycopersicum (tomato) at 10 nM after 5 days relative to untreated control
[15] = test system: Solanum lycopersicum; experiment: Stimulation of germination of Solanum lycopersicum (tomato) at 0.1 mM after 5 days relative to untreated control
[16] = test system: Lactuca sativa; experiment: Stimulation of germination of Lactuca sativa cv. Nigra (lettuce) at 0.1 mM after 5 days relative to untreated control
[17] = test system: Lepidium sativum; experiment: Stimulation of germination of Lepidium sativum at 0.1 mM after 5 days relative to untreated control
[18] = test system: Lepidium sativum; experiment: Inhibition of root length of Lepidium sativum at 0.1 mM after 5 days relative to untreated control; conditions: 120 h
[19] = test system: Lactuca sativa; experiment: Stimulation of germination of Lactuca sativa cv. Roman (lettuce) at 0.1 mM after 5 days relative to untreated control
[20] = test system: Solanum lycopersicum; experiment: Inhibition of germination of Solanum lycopersicum (tomato) at 0.1 mM after 5 days relative to untreated control
[21] = test system: Allium cepa; experiment: Inhibition of germination of Allium cepa (onion) at 1 uM after 5 days relative to untreated control; conditions: 120 h
[22] = test system: Lepidium sativum; experiment: Stimulation of shoot length of Lepidium sativum at 0.1 mM after 5 days relative to untreated control
[23] = test system: Hordeum vulgare; experiment: Stimulation of shoot length of Hordeum vulgare (barley) at 0.1 mM after 5 days relative to untreated control
[24] = test system: Lactuca sativa; experiment: Inhibition of root length of Lactuca sativa cv. Roman (lettuce) at 0.1 mM after 5 days relative to untreated control
[25] = test system: Lactuca sativa; experiment: Inhibition of shoot length of Lactuca sativa cv. Nigra (lettuce) at 0.1 mM after 5 days relative to untreated control; conditions: 120 h
[26] = test system: Triticum aestivum; experiment: Stimulation of root length of Triticum aestivum (wheat) at 0.1 mM after 5 days relative to untreated control
[27] = test system: Lactuca sativa; experiment: Stimulation of shoot length of Lactuca sativa cv. Nigra (lettuce) at 0.1 mM after 5 days relative to untreated control
[28] = test system: Lactuca sativa; experiment: Stimulation of shoot length of Lactuca sativa cv. Roman (lettuce) at 0.1 mM after 5 days relative to untreated control
[29] = test system: Solanum lycopersicum; experiment: Inhibition of root length of Solanum lycopersicum (tomato) at 0.1 mM after 5 days relative to untreated control; conditions: 120 h
[30] = test system: Lactuca sativa; experiment: Inhibition of root length of Lactuca sativa cv. Nigra (lettuce) at 0.1 mM after 5 days relative to untreated control; conditions: 120 h
[31] = test system: Hordeum vulgare; experiment: Inhibition of root length of Hordeum vulgare (barley) at 0.1 mM after 5 days relative to untreated control; conditions: 120 h
[32] = test system: Hordeum vulgare; experiment: Stimulation of germination of Hordeum vulgare (barley) at 0.1 mM after 5 days relative to untreated control
[33] = test system: Lepidium sativum; experiment: Stimulation of root length of Lepidium sativum at 0.1 mM after 5 days relative to untreated control
[34] = test system: Allium cepa; experiment: Inhibition of shoot length of Allium cepa (onion) at 0.1 mM after 5 days relative to untreated control; conditions: 120 h
[35] = test system: Solanum lycopersicum; experiment: Inhibition of shoot length of Solanum lycopersicum (tomato) at 0.1 mM after 5 days relative to untreated control; conditions: 120 h
[36] = test system: Allium cepa; experiment: Inhibition of root length of Allium cepa (onion) at 0.1 mM after 5 days relative to untreated control
[37] = test system: Allium cepa; experiment: Inhibition of germination of Allium cepa (onion) at 0.1 mM after 5 days relative to untreated control
[38] = test system: Allium cepa; experiment: Stimulation of shoot length of Allium cepa (onion) at 0.1 mM after 5 days relative to untreated control
[39] = test system: Triticum aestivum; experiment: Inhibition of root length of Triticum aestivum (wheat) at 0.1 mM after 5 days relative to untreated control
[40] = test system: Lactuca sativa; experiment: Stimulation of root length of Lactuca sativa cv. Nigra (lettuce) at 0.1 mM after 5 days relative to untreated control
[41] = test system: Solanum lycopersicum; experiment: Stimulation of shoot length of Solanum lycopersicum (tomato) at 0.1 mM after 5 days relative to untreated control
[42] = test system: Triticum aestivum; experiment: Stimulation of shoot length of Triticum aestivum (wheat) at 0.1 mM after 5 days relative to untreated control
[43] = test system: Hordeum vulgare; experiment: Stimulation of root length of Hordeum vulgare (barley) at 0.1 mM after 5 days relative to untreated control
[44] = test system: Allium cepa; experiment: Stimulation of germination of Allium cepa (onion) at 0.1 mM after 5 days relative to untreated control
[45] = test system: Hordeum vulgare; experiment: Inhibition of germination of Hordeum vulgare (barley) at 10 nM after 5 days relative to untreated control; conditions: 120 h

COC(=O)[C@@]1(C)CCC[C@@]2(C)[C@H]1CC[C@H]1COC(=O)C[C@@H]12
inhibition at 100 µM [1]: 20% | inhibition at 100 µM [2]: 20% | inhibition [3]: inactive | Activity [4]: <20% | Activity [5]: <20% | Activity [6]: inactive | inhibition [7]: inactive | inhibition at 100 µM [8]: 20% | inhibition [9]: inactive | inhibition at 100 µM [10]: > 40% | inhibition [11]: inactive | Activity [12]: >40% | inhibition [13]: inactive | Activity [14]: 60% | Activity [15]: inactive | Activity [16]: 20% | Activity [17]: inactive | inhibition at 100 µM [18]: < 20% | Activity [19]: inactive | inhibition [20]: inactive | inhibition at 1 µM [21]: -46% | Activity [22]: 20% | Activity [23]: inactive | inhibition at 100 µM ([24]; 120 h): < 20% | inhibition at 100 µM [25]: 20% | Activity [26]: <20% | Activity [27]: 20% | Activity [28]: 20% | inhibition at 100 µM [29]: > 40% | inhibition at 100 µM [30]: < 20% | inhibition at 100 µM [31]: > 40% | Activity [32]: >40% | Activity [33]: <20% | inhibition at 100 µM [34]: 20% | inhibition at 100 µM [35]: 20% | inhibition at 100 µM ([36]; 120 h): < 20% | inhibition at 100 µM ([37]; 120 h): 20% | Activity [38]: 20% | inhibition at 100 µM ([39]; 120 h): < 20% | Activity [40]: <20% | Activity [41]: 20% | Activity [42]: inactive | Activity [43]: >40% | Activity [44]: 20%

C[C@]1(C(=O)O)CCC[C@]2(C)C3=CC(=O)OC[C@]34O[C@@H]4C[C@@H]12
inhibition at 100 µM [1]: 20% | inhibition at 100 µM [2]: < 20% | inhibition [3]: inactive | Activity [4]: inactive | Activity [5]: inactive | Activity [6]: inactive | inhibition at 100 µM ([7]; 120 h): < 20% | inhibition at 100 µM [8]: < 20% | inhibition [9]: inactive | inhibition at 100 µM [10]: > 40% | inhibition [11]: inactive | Activity [12]: 20% | inhibition [13]: inactive | Activity [15]: inactive | Activity [16]: <20% | Activity [17]: inactive | inhibition at 100 µM [18]: < 20% | Activity [19]: <20% | inhibition [20]: inactive | Activity [22]: 20% | inhibition at 0.01 µM [45]: -72% | Activity [23]: inactive | inhibition [24]: inactive | inhibition at 100 µM [25]: < 20% | Activity [26]: inactive | Activity [27]: <20% | Activity [28]: <20% | inhibition at 100 µM [29]: 20% | inhibition at 100 µM [30]: < 20% | inhibition at 100 µM [31]: 20% | Activity [32]: >40% | Activity [33]: <20% | inhibition at 100 µM [34]: < 20% | inhibition at 100 µM [35]: < 20% | inhibition [36]: inactive | inhibition [37]: inactive | Activity [38]: <20% | inhibition [39]: inactive | Activity [40]: <20% | Activity [41]: <20% | Activity [42]: inactive | Activity [43]: 20% | Activity [44]: inactive
